pEC50, pIC50: −log10 of the molar value. Like-named read-outs stand apart in the source and are kept apart here.
Key:
S. mansoni schistosomula = experiment: Motor activity of schistosomula in culture (frequency of body length changes); type: cell-based, Schistosoma mansoni; details: for concentration at which significant inhibition of motility was observed: range tested 10^−7 M–10^−4 M
Procedure: 3-day old in vitro transformed schistosomula were placed in individual wells of a 24-well plate (30–40 animals/well) in 300 µl of OPTI-MEM+10% dialyzed serum. Following an adaptation period of 15 min at room temperature, test substances were added at a final concentration of 100 µM or as indicated. Animals were monitored 5 min after drug addition by placing the 24-well plate on a compound microscope (Nikon, SMZ1500) equipped with a digital video camera (QICAM Fast 1394, mono 12 bit, Qimaging) and SimplePCI version 5.2 (Compix Inc.) for image acquisition. Images were obtained at a rate of ≈3 frames/s for a period of 1 minute and the data were analyzed with ImageJ software (version 1.41, NIH, USA). Cultured schistosomula display complex motor behaviours that are dominated by repeated changes in length, both shortening and elongation. To quantify this type of movement, we used the “Fit-Ellipse” command of ImageJ to draw best-fit ellipses of individual animals in each recorded frame. An estimate of body length was obtained by measuring the principal (“major”) axis of each ellipse, using calibrated units (µm), and the frequency of length changes during the observation period was calculated. Any change representing >10% of body length, whether an increase or decrease, was included in the calculation; changes ≤10% were disregarded. Between 12–15 animals were monitored per well and the experiment was repeated a minimum of 3 times. To monitor for possible drug induced toxicity, viability tests were performed routinely using the methylene blue dye exclusion assay described by Gold.
To explore this possibility we tested the effects of several SmGPR-3 agonists and antagonists on the motor activity of intact schistosomula in culture. […] We used a larval stage (schistosomula) instead of adult worms because the larvae are better suited for quantitative measurements of movement. […] To quantitate motor activity, we monitored individual schistosomula in the presence and absence of test substances, using a microscope equipped with a video camera and imaging software. Approximately 180 consecutive frames were recorded for each animal over 1 min of observation and the approximate length of the animal in each frame was measured in calibrated units (µm). […] To quantify the level of motor activity, we repeated experiments at different concentrations of each amine and then calculated the frequency of length changes, both decrease and increase for each individual animal during the 1 min of observation. Mean values were obtained from the average of 12–15 animals/experiment and each experiment was repeated a minimum of 3 times.
Figure 7 Effects of dopamine and related substances on schistosome motility. (A) In vitro transformed 3-day-old schistosomula were incubated with test drug, dopamine (DA) or epinine (EPN), each at (10^−4 M) or vehicle (CT, control). Animals were treated for 5 min at room temperature, after which they were examined with a compound microscope equipped with a digital video camera and SimplePCI (Compix Inc.) for image acquisition. Images were recorded for 1 minute (∼3 frames/second) and an estimate of body length in µm was obtained for each animal in every frame. Each tracing shown is of an individual animal and is representative of 12–15 larvae per experiment and 3–4 independent experiments per treatment.

SmGPR-3 [1] = target: T1, SmGPR-3 (Schistosoma mansoni, UniProt C4Q8W8); experiment: cell-based
T1 sequence (C4Q8W8 1-497): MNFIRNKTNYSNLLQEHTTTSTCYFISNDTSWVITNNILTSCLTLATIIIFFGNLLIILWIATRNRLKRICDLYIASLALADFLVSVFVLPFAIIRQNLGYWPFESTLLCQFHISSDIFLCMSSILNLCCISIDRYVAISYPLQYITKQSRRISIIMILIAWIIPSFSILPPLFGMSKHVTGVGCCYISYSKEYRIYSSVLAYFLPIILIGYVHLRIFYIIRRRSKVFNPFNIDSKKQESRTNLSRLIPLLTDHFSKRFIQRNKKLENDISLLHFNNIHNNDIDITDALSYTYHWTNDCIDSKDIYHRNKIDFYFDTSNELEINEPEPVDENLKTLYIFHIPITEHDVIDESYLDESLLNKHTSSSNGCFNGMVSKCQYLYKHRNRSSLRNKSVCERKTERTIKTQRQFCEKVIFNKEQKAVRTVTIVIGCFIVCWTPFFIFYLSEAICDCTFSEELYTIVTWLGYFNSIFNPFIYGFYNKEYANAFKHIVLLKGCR
Description: (§1) The SmGPR-3 coding sequence was sub-cloned between the NcoI/XbaI restriction sites of the yeast expression vector Cp4258 (kindly provided by Dr J. Broach, Princeton University, NJ, USA). The functional expression assay was adapted from the protocol of Wang and colleagues as described, [30]. The receptor was expressed in Saccharomyces cerevisiae strain YEX108 (MATα PFUS1-HIS3 PGPA1-Gαq(41)-GPA1-Gaq(5) can1 far1Δ 1442 his3 leu2 lys2 sst2Δ2 ste14::trp1::LYS2 ste18Δ6-3841 ste3Δ1156 tbt1-1 trp1 ura3; kindly provided by J. Broach, Princeton University, NJ, USA). This strain expresses the HIS3 reporter gene under the control of the FUS1 promoter and contains an integrated copy of a chimeric Gα gene in which the first […] and last five codons of native yeast Gα (GPA1) were replaced with those of human Gαq. […] YPD culture medium (1% yeast extract, 2% peptone and 2% dextrose) was used to culture YEX108 strain, according to standard conditions. The lithium acetate method was performed to transform yeast with either empty Cp4258 vector (mock) or Cp4258/SmGPR-3 expression plasmid, using 200 µl mid-log phase cells, 200 µg carrier single stranded DNA (Invitrogen) and 1 µg plasmid. Positive transformants were selected on synthetic complete (SC) 2% glucose solid medium lacking leucine (SC/leu^−). For agonist assays, single colonies of transformants were cultured overnight in SC/leu^− liquid medium at 250 rpm/30°C. The next day, cells were washed four times in SC 2% glucose liquid medium that lacked both leucine and histidine (SC/leu^−/his^−). Cells were finally resuspended in SC/leu^−/his^− medium supplemented with 50 mM 3-(N-morpholino) propanesulfonic acid (MOPS), pH 6.8 and 1.5 mM 3-Amino-1, 2, 4-Triazole (3-AT). The latter was used to reduce basal growth due to endogenous background signalling as it inhibits the gene product of HIS3 [29]. Aliquots containing approximately 3,000 cells were added to individual wells of a 96-well plate containing test agonist or vehicle plus additional medium for a total reaction volume of 100 µl. The plates were incubated at 30°C for 22–26 h, after which 10 µl of Alamar blue (Invitrogen) was added to each well. The plates were returned to the 30°C incubator until the Alamar blue color started to shift to pink (approximately 1–4 h) and fluorescence (560 nm excitation/590 nm emission) was measured at 30°C every hour up to three hours, using a plate fluorometer (FlexStation II, Molecular Devices, US). Antagonist assays were done in a similar way, except that each well contained 10^−4 M agonist (dopamine) and the antagonist at the specified concentration. Data analyses and dose-response curve fits were performed using Prism v5.0 (GraphPad software Inc.).
Functional expression assays were performed in yeast. […] The full-length SmGPR-3 cDNA was ligated to the Cp4258 vector and the recombinant plasmid was transformed into Saccharomyces cerevisae to test for receptor activity. We used a genetically modified S. cerevisae strain that is designed for GPCR activity assays. The yeast is auxotrophic for histidine and expresses a HIS3 reporter gene under the control of the FUS1 promoter. Activation of a recombinant GPCR in this system increases expression of the HIS3 reporter via the yeast's endogenous pheromone response, which in turn allows the cells to grow in selective histidine-deficient medium. Thus receptor activity can be quantified based on measurements of yeast growth in the selective medium, using a fluorometric Alamar Blue assay. Cells transformed with either empty vector (mock control) or SmGPR-3 were initially tested with all different biogenic amines, each at 2×10^−4 M (Fig. 3A).
Yeast cells transformed with empty plasmid were used as a negative control (mock).

SmGPR-3 [2] = target: T1, SmGPR-3; experiment: cell-based; details: for inhibition of SmGPR-3 activity: highest concentration tested, in the presence of 100 µM DA
Description: as §1
(§2) Next we examined the effects of classical (mammalian) dopaminergic and other BA antagonists on the activity of SmGPR-3. Drugs were tested initially at a single concentration of 100 µM (10 µM in the case of flupenthixol) in the presence of 100 µM DA (Fig. 4A). […] Those drugs that produced significant inhibition (>50%) in the initial screen were subsequently tested at different concentrations to obtain dose response curves (Fig. 4B–F). […] To test this possibility, we repeated the assay in medium supplemented with histidine (100 µM), which enables cell growth irrespective of receptor activation.
Figure 4 Antagonist effects on SmGPR-3 activity. (A) Yeast YEX108 auxotrophic his strain expressing SmGPR-3 was incubated with agonist (DA, 100 µM) and test antagonist or vehicle. Antagonists were tested at 100 µM except for flupenthixol, which was used at 10 µM.

[3] = test system: Saccharomyces cerevisiae strain YEX108; experiment: Drug-induced toxicity control: yeast growth in histidine-supplemented medium; type: cell-based; details: medium supplemented with histidine (100 µM); drug-treated cells
Procedure: as §2
Figure 4 Antagonist effects on SmGPR-3 activity. (A) Yeast YEX108 auxotrophic his strain expressing SmGPR-3 was incubated with agonist (DA, 100 µM) and test antagonist or vehicle. Antagonists were tested at 100 µM except for flupenthixol, which was used at 10 µM. The data were normalized relative to the control sample that contained 100 µM DA but no antagonist. To test for drug induced toxicity, assays were repeated in the presence of 100 µM test antagonist in histidine-supplemented (his+) medium, which enables the cell to grow irrespective of receptor activation (His +ve control; see text for details). Abbreviations are as follows: SPIP, spiperone; PROP, propanolol; CLZP, clozapine; BUSP, buspirone; MINS, mianserin; CPRH, cyproheptadine; FLPX, flupenthixol; PRMZ, promethazine; HLRD, haloperidol. […] The error bars are the means ± SEM for 3–4 experiments and at least 2 clones (in triplicates).

SmGPR-2 = test system: SmGPR-2; design: method as in PMID 20430030; details: cited from earlier work
[4] = 50 µM, compared to untreated larvae
[5] = 100 µM, 3-day-old schistosomula, 5 min after drug addition
[6] = each amine at 2×10^−4 M, relative to no drug control
[7] = drug 100 µM in the presence of 100 µM DA
[8] = 500 µM, compared to untreated larvae

NCCc1ccc(O)c(O)c1 [dopamine]
effect on motor activity of schistosomula (S. mansoni schistosomula; [4]): decrease in motility | effect on motor activity of schistosomula (S. mansoni schistosomula; [5]): decreased both the amplitude and frequency of contractions | concentration at which significant inhibition of motility was observed (S. mansoni schistosomula): ≥ 10 µM | pEC50 (SmGPR-3 [1]): 4.51 | SmGPR-3 activation by biogenic amine (SmGPR-3 [1]; [6]): selectively activated

O=C(CCCN1CCC2(CC1)C(=O)NCN2c1ccccc1)c1ccc(F)cc1 [spiperone]
enhancement of SmGPR-3 activity (SmGPR-3 [2]; [7]): ~2 fold

O=C(CCCN1CCC(O)(c2ccc(Cl)cc2)CC1)c1ccc(F)cc1 [haloperidol]
effect on motor activity of schistosomula (S. mansoni schistosomula; [8]): no significant motor effects | yeast growth in the presence of histidine (toxicity control) [3]: normal or nearly normal growth

CC(CN1c2ccccc2Sc2ccccc21)N(C)C (stereo not shown) [promethazine]
pIC50 (SmGPR-3 [2]): 4.55 | effect on motor activity of schistosomula (S. mansoni schistosomula; [4]): significant decrease in motor activity | yeast growth in the presence of histidine (toxicity control) [3]: normal or nearly normal growth | inhibition of SmGPR-2 (SmGPR-2): most potent inhibitors of SmGPR-2

CN1CCN(C2=Nc3cc(Cl)ccc3Nc3ccccc32)CC1 [clozapine]
effect on SmGPR-3 activity (SmGPR-3 [2]; [7]): modest or no significant inhibition

CN1CCN2c3ccccc3Cc3ccccc3C2C1 (stereo not shown) [mianserin]
inhibition of SmGPR-3 activity (SmGPR-3 [2]): ≈ 70%

NC[C@H](O)c1ccc(O)c(O)c1 [noradrenaline]
SmGPR-3 activation by biogenic amine (SmGPR-3 [1]; [6]): stimulated SmGPR-3 activity but not to the same extent as dopamine or epinine

CC(C)NCC(O)COc1cccc2ccccc12 (stereo not shown) [propranolol]
effect on SmGPR-3 activity (SmGPR-3 [2]; [7]): no effect

CNC[C@H](O)c1ccc(O)c(O)c1 [adrenaline]
effect on motor activity of schistosomula (S. mansoni schistosomula; [8]): decrease in motility | SmGPR-3 activation by biogenic amine (SmGPR-3 [1]): stimulated SmGPR-3 activity but not to the same extent as dopamine or epinine

OCCN1CCN(CCC=C2c3ccccc3Sc3ccc(C(F)(F)F)cc32)CC1 [flupenthixol]
pIC50 (SmGPR-3 [2]): 5.41 | effect on motor activity of schistosomula (S. mansoni schistosomula; [4]): significant decrease in motor activity | yeast growth in the presence of histidine (toxicity control) [3]: normal or nearly normal growth | inhibition of SmGPR-2 (SmGPR-2): most potent inhibitors of SmGPR-2

CN1CCC(=C2c3ccccc3C=Cc3ccccc32)CC1 [cyproheptadine]
inhibition of SmGPR-3 activity (SmGPR-3 [2]): ≈ 70%

CNCC(O)c1ccc(O)c(OC)c1 (stereo not shown) [metanephrine]
increase in the frequency of body wall movements (S. mansoni schistosomula; 500 µM): ≈ 3 fold | effect on motor activity of schistosomula (S. mansoni schistosomula; [8]): marked hyperactivation | SmGPR-3 activation by biogenic amine (SmGPR-3 [1]; [6]): stimulated SmGPR-3 activity but not to the same extent as dopamine or epinine

CNCCc1ccc(O)c(O)c1 [epinine]
effect on motor activity of schistosomula (S. mansoni schistosomula; [4]): decrease in motility | effect on motor activity of schistosomula (S. mansoni schistosomula; [5]): virtual paralysis | concentration at which significant inhibition of motility was observed (S. mansoni schistosomula): ≥ 10 µM | pEC50 (SmGPR-3 [1]): 4.55 | SmGPR-3 activation by biogenic amine (SmGPR-3 [1]; [6]): selectively activated

From PMC3289605, “A Novel G Protein-Coupled Receptor of Schistosoma mansoni (SmGPR-3) Is Activated by Dopamine and Is Widely Expressed in the Nervous System” (PLoS Neglected Tropical Diseases, 2012)
